Data reported in patent US20040096851A1, “ABCA1 PEST domain-related compositions and methods” (priority 2002, published 2004).
One block for each molecule: values may come before it.

Experiments:
ABCA1 protein [1] = experiment: ABCA1 protein level in mouse peritoneal macrophages (Western); type: cell-based; conditions: for ABCA1 protein level, effect in words: mouse peritoneal macrophages, 3 hours, apoA-I 10 μg/ml, HDL2 50 μg protein/ml, MβCD 1 mM 5 min, apigenin 40 μM
Method: Cellular lipid efflux assays, apoA-I cell association, and chemical cross-linking: The assays were carried out as in (14). Generally, 293 cells were labeled by culturing overnight in media containing either [^3H]cholesterol, for cholesterol efflux, or [^3H]choline, for phospholipid efflux. The next day, cells were washed with fresh media before or after treatment as indicated, and then apoA-I was added as acceptor and incubated for the indicated period before the media and cells were collected for analysis. Mouse peritoneal macrophage cells were isolated from male mice by peritoneal lavage with PBS 3 days after intraperitoneal injection with 1 ml of 3.85% thioglycollate. The cells were labeled with […] [^3H]cholesterol overnight in DMEM and 0.2% BSA supplemented with 50 μg/ml acetylated LDL plus LXR/RXR ligands 22(R)-hydroxycholesterol and 9-cis retinoic acid (both 10 μM). After labeling, cells were washed and efflux was carried out with 10 μg/ml apoA-I for 3 hours. Then, cells and medium were collected for analysis. Cholesterol efflux was expressed as the percentage of the radioactivity released from the cells into the medium, relative to the total radioactivity in cells plus medium. For apoA-I cell association, cells were incubated with 0.2 μg/ml [^125 I]apoA-I in 0.2% BSA and DMEM for 1 hour at 37° C. After being washed three times with fresh media, cells were lysed with 0.1% SDS and 0.1N NaOH lysis buffer, and radioactivity was determined by a gamma counter.
(§1) Immunoprecipitation and immunoblot analysis of ABCA1: For immunoblot analysis of ABCA1, ABCA1-FLAG, and ABCA1delPEST-FLAG, transfected HEK293 cells, peritoneal macrophages, or primary hepatocytes were washed and scraped in PBS and lysed in RIPA buffer (10 mM Tris-HCl [pH 7.3], 1 mM MgCl2, 1.0% Nonidet P-40, 0.5% sodium deoxycholate, and 5 mM EDTA in the presence of protease inhibitors as follows: 0.5 μg/ml leupeptin, 1 μg/ml aprotinin, and 1 μg/ml pepstatin A) (Roche Molecular Biochemicals, Indianapolis, Ind., USA). Postnuclear supernatants containing the indicated amounts of protein were subjected to Western analysis using an anti-ABCA1 antiserum or anti-FLAG M2 antibody and chemiluminescence detection. The relative intensities of the bands were determined by densitometry. For cell surface ABCA1 analysis, cells were first biotinylated with 0.5 mg/ml EZ-Link Sulfo-NHS-SS-Biotin (Pierce Chemical Co., Rockford, Ill., USA) at 4° C. for 30 minutes. Then cells were lysed with RIPA buffer at 4° C. After centrifugation, the supernatant of cell lysates was incubated with anti-FLAG agarose beads overnight at 4° C. Following centrifugation and washing, the collected agarose beads were subjected to SDS-PAGE sample buffer with 100 mM 2-mercaptoethanol. The total or […] ABCA1 was detected by Western blot using either anti-FLAG antibody or streptavidin-horseradish peroxidase.

ABCA1 phosphorylation = experiment: Phosphorylation of ABCA1 in cells; type: cell-based
ABCA1 protein [2] = experiment: ABCA1 protein level in primary mouse hepatocytes (Western); type: cell-based; conditions: apoA-I 10 μg/ml 3 hours
Method: as §1, with “peroxidase. […]” for “peroxidase.”

ABCA1 protein [3] = experiment: ABCA1 protein level in mouse peritoneal macrophages (Western); type: cell-based; conditions: cultured cells, short-term incubations, data not shown
ABCA1 protein [4] = experiment: ABCA1 protein turnover and level in transiently transfected 293 cells (metabolic labeling, Western, cell surface biotinylation); type: cell-based, human
Text: Plasmid constructs and cell transfection: ABCA1-FLAG was constructed as described (18). ABCA1delPEST was based on ABCA1-FLAG. Using PCR, ABCA1delPEST was constructed by deleting a nucleotide sequence that encodes mouse ABCA1 amino acids 1283-1306 and was confirmed by sequencing. HEK293 cells, in 12- or 24-well collagen-coated plates, were transiently transfected with various plasmid constructs at indicated DNA concentrations with Lipofectamine 2000 (Invitrogen Corp., San Diego, Calif., USA) at 37° C. overnight (20 hours). A construct expressing green fluorescence protein (GFP) was routinely used to visually monitor transfection efficiency (i.e., the percentage of cells expressing GFP). The transfection efficiency of 293 cells was in the range of 50-80% of cells. […] In addition to performing multiple replicates within each experiment, all experiments were repeated on multiple separate occasions to confirm reproducibility of results.
as §1

ABCA1 [5] = conditions: macrophages loaded with acetyl-LDL and cholesterol ester; cited from earlier work
ABCA1 [6] = target: T1, ABCA1 (Mus musculus, UniProt P41233); experiment: Calpain-catalyzed proteolysis of metabolically labeled ABCA1 in digitonin-permeabilized 293 cells; type: cell-based; design: expressed in transfected cells; host or cells: 293 cells, digitonin-permeabilized
T1 sequence (P41233 whole entry): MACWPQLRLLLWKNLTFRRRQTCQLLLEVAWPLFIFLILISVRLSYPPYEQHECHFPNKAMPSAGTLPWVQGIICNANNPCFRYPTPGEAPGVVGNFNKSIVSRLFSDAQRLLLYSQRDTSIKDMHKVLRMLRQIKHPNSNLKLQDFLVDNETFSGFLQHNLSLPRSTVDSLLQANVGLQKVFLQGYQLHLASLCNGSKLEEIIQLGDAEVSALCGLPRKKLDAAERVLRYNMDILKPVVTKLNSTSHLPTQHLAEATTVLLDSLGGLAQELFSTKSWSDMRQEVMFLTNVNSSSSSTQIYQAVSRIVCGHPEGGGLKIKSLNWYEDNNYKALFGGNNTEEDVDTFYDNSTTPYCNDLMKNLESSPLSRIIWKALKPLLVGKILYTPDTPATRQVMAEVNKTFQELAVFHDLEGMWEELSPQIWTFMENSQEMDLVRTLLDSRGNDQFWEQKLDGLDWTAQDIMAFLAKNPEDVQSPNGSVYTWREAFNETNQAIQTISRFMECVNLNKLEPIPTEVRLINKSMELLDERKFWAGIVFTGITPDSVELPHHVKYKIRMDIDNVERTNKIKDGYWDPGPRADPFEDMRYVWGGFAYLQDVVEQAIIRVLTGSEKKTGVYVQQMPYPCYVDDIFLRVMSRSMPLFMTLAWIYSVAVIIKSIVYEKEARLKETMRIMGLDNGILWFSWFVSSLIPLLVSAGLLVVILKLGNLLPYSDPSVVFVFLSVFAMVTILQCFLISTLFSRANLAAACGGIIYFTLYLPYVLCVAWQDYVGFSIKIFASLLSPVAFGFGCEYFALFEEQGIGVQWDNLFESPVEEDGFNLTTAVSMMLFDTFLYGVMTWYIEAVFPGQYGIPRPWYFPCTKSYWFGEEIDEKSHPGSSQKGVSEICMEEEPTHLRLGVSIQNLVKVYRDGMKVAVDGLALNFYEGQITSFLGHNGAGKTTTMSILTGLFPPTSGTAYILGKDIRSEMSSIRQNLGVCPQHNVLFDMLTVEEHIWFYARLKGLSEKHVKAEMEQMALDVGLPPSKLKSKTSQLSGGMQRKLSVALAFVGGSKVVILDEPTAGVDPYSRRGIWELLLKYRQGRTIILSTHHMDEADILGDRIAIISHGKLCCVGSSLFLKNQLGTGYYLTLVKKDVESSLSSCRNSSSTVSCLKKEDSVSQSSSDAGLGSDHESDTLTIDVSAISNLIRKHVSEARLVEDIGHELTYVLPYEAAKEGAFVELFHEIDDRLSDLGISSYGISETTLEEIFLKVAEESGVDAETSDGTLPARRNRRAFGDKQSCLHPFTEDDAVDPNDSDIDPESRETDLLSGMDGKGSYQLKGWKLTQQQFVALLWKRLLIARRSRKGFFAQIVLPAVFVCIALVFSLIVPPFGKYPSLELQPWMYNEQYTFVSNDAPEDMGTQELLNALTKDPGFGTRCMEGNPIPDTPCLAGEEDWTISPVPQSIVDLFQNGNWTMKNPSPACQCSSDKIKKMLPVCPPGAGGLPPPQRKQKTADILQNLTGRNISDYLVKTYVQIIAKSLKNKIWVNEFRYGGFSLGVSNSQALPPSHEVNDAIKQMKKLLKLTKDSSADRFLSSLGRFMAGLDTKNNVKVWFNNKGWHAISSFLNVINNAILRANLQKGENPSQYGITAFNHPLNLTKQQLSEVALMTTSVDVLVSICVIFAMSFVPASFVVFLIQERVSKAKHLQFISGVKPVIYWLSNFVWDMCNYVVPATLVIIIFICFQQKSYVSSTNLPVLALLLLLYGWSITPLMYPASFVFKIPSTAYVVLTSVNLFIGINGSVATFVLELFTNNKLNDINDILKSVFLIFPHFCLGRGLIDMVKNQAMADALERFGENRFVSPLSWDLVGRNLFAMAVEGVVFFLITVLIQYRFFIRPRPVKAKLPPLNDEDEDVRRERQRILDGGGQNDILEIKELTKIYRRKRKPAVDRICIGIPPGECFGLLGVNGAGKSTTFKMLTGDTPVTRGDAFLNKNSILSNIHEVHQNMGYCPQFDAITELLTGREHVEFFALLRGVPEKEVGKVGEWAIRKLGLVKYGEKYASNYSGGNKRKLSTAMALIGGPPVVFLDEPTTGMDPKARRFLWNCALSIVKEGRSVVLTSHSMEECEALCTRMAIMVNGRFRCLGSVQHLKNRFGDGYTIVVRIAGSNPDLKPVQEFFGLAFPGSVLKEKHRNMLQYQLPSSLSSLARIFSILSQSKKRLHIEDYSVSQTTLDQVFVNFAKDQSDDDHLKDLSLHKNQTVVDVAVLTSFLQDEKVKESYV
Method: (§2) Calpain-catalyzed proteolysis of metabolically labeled ABCA1: Transiently transfected 293 cells were pulse-labeled by [^35S]methionine (0.5 mCi/ml) in 0.2% BSA and DMEM for 2 hours. Cells were washed three times with fresh media and placed on ice for 10 minutes. Then cells were permeabilized by addition of 80 μg/ml digitonin in DMEM and incubated on ice for 15 minutes. Next, the cells were washed twice with fresh DMEM, and then purified μ-calpain in DMEM plus 2 mM CaCl2 was added at the indicated concentration and incubated for 20 minutes at room temperature. Then cells were lysed by addition of 1 ml RIPA buffer with 40 μg/ml calpeptin. FLAG-tagged ABCA1 was immunoprecipitated by anti-FLAG agarose beads and subjected to quantitative analysis by PhosphorImager.

ABCA1 [7] = target: T1, ABCA1; experiment: Apolipoprotein A-I infusion in mice, ABCA1 in liver and peritoneal macrophages; type: in vivo; design: from tissue; host or cells: mouse liver and peritoneal macrophages
Method: […] Mice were anesthetized intraperitoneally with 0.1 ml/30 g body weight of a solution containing 100 mg/ml ketamine and 30 mg/ml xylazine. ApoA-I (20 mg/kg body weight) or BSA as control was administered via femoral vein as a bolus injection. Four hours after injection, animals were euthanized and the liver was dissected out for analysis.

calpain protease = experiment: Degradation of a fluorescent calpain protease substrate in cells; type: cell-based; conditions: data not shown
ABCA1 [8] = target: T2, ABCA1 (Mus musculus, UniProt P41233, DEL1283-1306); experiment: Calpain-catalyzed proteolysis of metabolically labeled ABCA1 in digitonin-permeabilized 293 cells; type: cell-based; conditions: permeabilized 293 cells, purified μ-calpain
T2 construct: expressed in transfected cells; host or cells: 293 cells, digitonin-permeabilized
T2 sequence (P41233 with tags, fused parts or gaps DEL1283-1306): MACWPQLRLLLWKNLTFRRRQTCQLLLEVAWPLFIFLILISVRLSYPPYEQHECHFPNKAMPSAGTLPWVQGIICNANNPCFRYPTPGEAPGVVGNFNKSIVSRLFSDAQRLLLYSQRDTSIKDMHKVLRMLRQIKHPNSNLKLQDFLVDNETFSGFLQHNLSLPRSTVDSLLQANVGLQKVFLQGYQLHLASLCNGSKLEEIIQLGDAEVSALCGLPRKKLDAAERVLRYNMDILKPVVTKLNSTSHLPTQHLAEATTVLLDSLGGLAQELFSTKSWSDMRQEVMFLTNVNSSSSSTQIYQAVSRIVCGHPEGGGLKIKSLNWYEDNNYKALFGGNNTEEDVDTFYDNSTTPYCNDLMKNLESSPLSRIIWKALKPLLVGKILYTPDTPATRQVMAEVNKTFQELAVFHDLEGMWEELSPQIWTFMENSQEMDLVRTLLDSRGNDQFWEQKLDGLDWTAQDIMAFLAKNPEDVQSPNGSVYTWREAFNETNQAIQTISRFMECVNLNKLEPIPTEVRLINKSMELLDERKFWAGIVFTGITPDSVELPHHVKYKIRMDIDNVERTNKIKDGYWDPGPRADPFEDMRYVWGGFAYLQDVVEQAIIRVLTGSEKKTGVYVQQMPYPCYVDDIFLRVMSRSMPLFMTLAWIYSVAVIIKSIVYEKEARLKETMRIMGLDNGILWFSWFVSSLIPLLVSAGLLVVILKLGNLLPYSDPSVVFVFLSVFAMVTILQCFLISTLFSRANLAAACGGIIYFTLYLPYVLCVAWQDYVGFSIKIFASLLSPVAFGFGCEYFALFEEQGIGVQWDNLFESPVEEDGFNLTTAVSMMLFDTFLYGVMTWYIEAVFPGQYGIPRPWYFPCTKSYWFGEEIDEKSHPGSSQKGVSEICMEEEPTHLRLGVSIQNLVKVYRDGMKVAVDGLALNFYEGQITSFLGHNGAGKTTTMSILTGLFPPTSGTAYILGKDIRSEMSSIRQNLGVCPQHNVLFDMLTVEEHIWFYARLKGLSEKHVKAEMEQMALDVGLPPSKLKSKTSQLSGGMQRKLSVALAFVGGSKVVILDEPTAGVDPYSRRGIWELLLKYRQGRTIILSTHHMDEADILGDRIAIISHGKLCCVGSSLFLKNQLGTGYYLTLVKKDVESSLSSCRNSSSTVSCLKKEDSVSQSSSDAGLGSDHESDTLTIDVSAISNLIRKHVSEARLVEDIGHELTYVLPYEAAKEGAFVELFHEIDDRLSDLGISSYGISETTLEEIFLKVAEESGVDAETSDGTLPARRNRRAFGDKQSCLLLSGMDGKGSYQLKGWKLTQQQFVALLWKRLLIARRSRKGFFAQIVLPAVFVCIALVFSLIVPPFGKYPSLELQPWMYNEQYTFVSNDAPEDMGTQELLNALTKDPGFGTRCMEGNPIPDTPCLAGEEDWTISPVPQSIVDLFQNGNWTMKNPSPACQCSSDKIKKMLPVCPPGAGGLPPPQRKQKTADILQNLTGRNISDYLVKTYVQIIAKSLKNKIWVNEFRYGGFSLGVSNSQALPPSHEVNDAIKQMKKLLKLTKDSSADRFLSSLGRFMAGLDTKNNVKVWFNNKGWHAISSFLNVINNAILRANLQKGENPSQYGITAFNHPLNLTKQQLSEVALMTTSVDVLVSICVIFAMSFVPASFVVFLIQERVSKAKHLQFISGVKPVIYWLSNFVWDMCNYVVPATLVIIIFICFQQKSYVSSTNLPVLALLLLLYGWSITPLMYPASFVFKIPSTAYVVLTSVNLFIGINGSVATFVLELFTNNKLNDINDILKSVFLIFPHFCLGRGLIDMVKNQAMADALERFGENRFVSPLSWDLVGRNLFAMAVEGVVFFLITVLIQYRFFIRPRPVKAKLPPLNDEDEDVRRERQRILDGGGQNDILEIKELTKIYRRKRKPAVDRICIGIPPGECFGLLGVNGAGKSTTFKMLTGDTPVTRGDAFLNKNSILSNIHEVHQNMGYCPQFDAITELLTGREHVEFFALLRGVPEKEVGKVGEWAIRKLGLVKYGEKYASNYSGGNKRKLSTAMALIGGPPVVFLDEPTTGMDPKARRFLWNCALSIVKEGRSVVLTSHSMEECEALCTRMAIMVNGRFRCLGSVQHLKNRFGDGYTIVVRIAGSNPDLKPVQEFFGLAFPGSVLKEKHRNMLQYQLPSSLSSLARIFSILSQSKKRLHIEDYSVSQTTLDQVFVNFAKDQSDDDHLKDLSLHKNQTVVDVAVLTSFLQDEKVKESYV
Method: as §2

[9] = 293 cells, lactacystin 20 μM for 3 h
[10] = time-course study of apoA-I infusion
[11] = 293 cells, apoA-I 10 μg/ml 3 hours

Molecule: O=c1cc(-c2ccc(O)cc2)oc2cc(O)cc(O)c12 [apigenin, reference compound]
ABCA1 protein level, effect in words (ABCA1 protein [1]): increase
phosphorylation of ABCA1 (ABCA1 phosphorylation): decrease

Molecule: CCCC[C@@H](C=O)NC(=O)[C@H](CC(C)C)NC(=O)OCc1ccccc1 [calpeptin]
ABCA1 protein level, effect in words (ABCA1 protein [2]): increased
ABCA1 mRNA (ABCA1 protein [3]): without any change
ABCA1 protein level, effect in words (ABCA1 protein [1]): increased
effect of calpeptin on ABCA1delPEST (PEST sequence deleted) (ABCA1 protein [4]; 293 cells, calpeptin 30 μg/ml for 3 hours): abolished
mean increase in ABCA1 protein levels (ABCA1 protein [4]; 293 cells, calpeptin 30 μg/ml for 3 hours, p<0.001): 3.84±0.32 fold
cell surface ABCA1, effect in words (ABCA1 protein [4]; calpeptin): marked increase

Molecule: CC(=O)N[C@@H](CSC(=O)[C@]1([C@@H](O)C(C)C)NC(=O)[C@H](C)[C@@H]1O)C(=O)O [lactacystin]
ABCA1 level (ABCA1 [5]): increased
ABCA1 level (ABCA1 protein [1]; acetyl-LDL-loaded, LXR/RXR-activated macrophages, data not shown): increased
accumulation of total and cell surface ubiquitinated ABCA1 (ABCA1 protein [4]; [9]): increase in the accumulation
increase in total ABCA1 levels (ABCA1 protein [4]; [9]): 2.2 fold
increase in cell surface ABCA1 levels (ABCA1 protein [4]; 293 cells, lactacystin, data not shown): 2.2 fold

Molecule: C=C1[C@@H](O)[C@@H]2O[C@]3(CC[C@H](/C=C/[C@@H](C)[C@@H]4CC(C)=C[C@@]5(O[C@H](C[C@@](C)(O)C(=O)O)CC[C@H]5O)O4)O3)CC[C@H]2O[C@@H]1[C@@H](O)C[C@H](C)[C@H]1O[C@@]2(CCCCO2)CC[C@H]1C [okadaic acid]
ability of apoA-I to increase ABCA1 protein levels (ABCA1 protein [1]; macrophages): abolished

ability of calpain to mediate proteolysis of ABCA1 after pre-treatment (ABCA1 [6]; apoA-I 10 μg/ml for 3 hours prior to permeabilization): abolished
ABCA1 protein in liver (ABCA1 [7]; mice, intravenous apoA-I 20 mg/kg, 4 hours, chow-fed): induction
ABCA1 protein in peritoneal macrophages (ABCA1 [7]; mice, intravenous apoA-I, 4 hours, high-fat, high-cholesterol diet for 7 days): induction
ABCA1 mRNA levels in liver (ABCA1 [7]; quantitative real-time PCR, data not shown): did not significantly alter
ABCA1 protein levels after 24 hours (ABCA1 [7]; [10]): returned to base line
time for which the increase in ABCA1 was sustained (ABCA1 [7]; [10]): 8 h
Molecule: apoA-I: Human apoA-I (BIODESIGN International), dialyzed against PBS; apolipoprotein ligand of ABCA1
ABCA1 protein level, effect in words (ABCA1 protein [2]): rapid, marked increase
ABCA1 mRNA (ABCA1 protein [3]): did not change
cell surface expression of ABCA1 (ABCA1 protein [1]; macrophages, 3 hours apoA-I, biotinylation): increased
ABCA1 protein level, effect in words (ABCA1 protein [1]): rapid, marked increase
effect on ABCA1 in primary macrophage cultures (ABCA1 protein [1]): stabilization
cellular expression levels of ABCA1delPEST (ABCA1 protein [4]; [11]): no effect
protein levels of Walker motif mutant ABCA1 (ABCA1 protein [4]; [11]): no increase
ABCA1 protein level, effect in words (ABCA1 protein [4]; 293 cells, wild type ABCA1, apoA-I 10 μg/ml 3 hours): rapid, marked increase
level of ABCA1-W590S mutant (ABCA1 protein [4]; mutant binds apoA-I but does not mediate lipid efflux, data not shown): fails to increase
ubiquitination levels of ABCA1 (ABCA1 protein [4]; with or without proteasome inhibitors, data not shown): did not decrease
phosphorylation of ABCA1 (ABCA1 phosphorylation): time- and dose-dependent reduction
degradation of fluorescent calpain protease substrate (calpain protease): no change

Molecule: apoE: apoprotein ligand of ABCA1
effect on ABCA1 in primary macrophage cultures (ABCA1 protein [1]): stabilization

Molecule: methy-β-cyclodextrin
ABCA1 protein level, effect in words (ABCA1 protein [1]): no effect

degradation of wild type ABCA1 (ABCA1 [6]; permeabilized 293 cells, purified μ-calpain): efficient degradation
degradation of ABCA1delPEST (ABCA1 [8]): no appreciable degradation
B1: μ-calpain: Purified μ-calpain protease from Calbiochem-Novabiochem (protein, UniProt P07384 2-714; P04632 1-268, looked up)
Calpain-1 catalytic subunit: SEEIITPVYCTGVSAQVQKQRARELGLGRHENAIKYLGQDYEQLRVRCLQSGTLFRDEAFPPVPQSLGYKDLGPNSSKTYGIKWKRPTELLSNPQFIVDGATRTDICQGALGDCWLLAAIASLTLNDTLLHRVVPHGQSFQNGYAGIFHFQLWQFGEWVDVVVDDLLPIKDGKLVFVHSAEGNEFWSALLEKAYAKVNGSYEALSGGSTSEGFEDFTGGVTEWYELRKAPSDLYQIILKALERGSLLGCSIDISSVLDMEAITFKKLVKGHAYSVTGAKQVNYRGQVVSLIRMRNPWGEVEWTGAWSDSSSEWNNVDPYERDQLRVKMEDGEFWMSFRDFMREFTRLEICNLTPDALKSRTIRKWNTTLYEGTWRRGSTAGGCRNYPATFWVNPQFKIRLDETDDPDDYGDRESGCSFVLALMQKHRRRERRFGRDMETIGFAVYEVPPELVGQPAVHLKRDFFLANASRARSEQFINLREVSTRFRLPPGEYVVVPSTFEPNKEGDFVLRFFSEKSAGTVELDDQIQANLPDEQVLSEEEIDENFKALFRQLAGEDMEISVKELRTILNRIISKHKDLRTKGFSLESCRSMVNLMDRDGNGKLGLVEFNILWNRIRNYLSIFRKFDLDKSGSMSAYEMRMAIESAGFKLNKKLYELIITRYSEPDLAVDFDNFVCCLVRLETMFRFFKTLDTDLDGVVTFDLFKWLQLTMFA
Calpain small subunit 1: MFLVNSFLKGGGGGGGGGGGLGGGLGNVLGGLISGAGGGGGGGGGGGGGGGGGGGGTAMRILGGVISAISEAAAQYNPEPPPPRTHYSNIEANESEEVRQFRRLFAQLAGDDMEVSATELMNILNKVVTRHPDLKTDGFGIDTCRSMVAVMDSDTTGKLGFEEFKYLWNNIKRWQAIYKQFDTDRSGTICSSELPGAFEAAGFHLNEHLYNMIIRRYSDESGNMDFDNFISCLVRLDAMFRAFKSLDKDGTGQIQVNIQEWLQLTMYS
